# Experiments:
# H9 cell line = experiment: leukemia cell growth inhibition, MTT; assay type: cell-based; conditions: Homo sapiens
# Text: (§1) Leukemia cell lines: leukemia cell lines: K562/adr (drug-resistant, chronic myeloid leukemia, CML), NB4 (acute promyelocytic leukemia, AML), Kasumi-1 (acute myeloid leukemia M2 type, AML-M2), Jurkat (acute lymphoblastic leukemia, ALL), all of which are donated by Cancer Research Institute of Zhejiang University, China; and H9 (acute lymphoblastic leukemia, ALL), which is purchased from China Center for Type Culture Collection (CCTCC).
# (§2) Obtaining 6000 well-growing leukemia cells and inoculating them into wells of a 96-well cell culture plate. The culture medium is the 1640 cell culture medium containing 10% fetal bovine serum. After adding the 2-substituted oleanolic acid derivatives of different concentrations and mixing uniformly, placing the plate in a carbon dioxide cell incubator (5% CO2) at 37° C. and incubated for 72 hours. Then the relative number of viable cells is determined by MTT method. In this experiment, cell proliferation inhibition rate in control group (not treated with any compound) is set as 0%.
# Jurkat cell line = experiment: leukemia cell growth inhibition, MTT; assay type: cell-based; conditions: Homo sapiens, 72 h
# Text: as §1, §2
# K562/adr cell line = experiment: leukemia cell growth inhibition, MTT; assay type: cell-based; conditions: Homo sapiens, 72 h
# Text: as §1, §2
# Kasumi-1 cell line = experiment: leukemia cell growth inhibition, MTT; assay type: cell-based; conditions: Homo sapiens
# Text: as §1, §2
# NB4 cell line = experiment: leukemia cell growth inhibition, MTT; assay type: cell-based; conditions: Homo sapiens, NB-4
# Text: as §1, §2
# RPMI8226 cell line = experiment: multiple myeloma cell growth inhibition, MTT; assay type: cell-based; conditions: Homo sapiens, RPMI-8226
# Procedure: Multiple myeloma cell lines: RPMI8226 (multiple myeloma), purchased from Fuxiang Bio-tech Co. Ltd., Shanghai, China.
# Obtaining 6000 well-growing cells as above and inoculating them into wells of a 96-well cell culture plate. The culture medium is the 1640 cell culture medium containing 10% fetal bovine serum. After adding the 2-substituted oleanolic acid derivatives of different concentrations and mixing uniformly, placing the plate in a carbon dioxide cell incubator (5% CO2) at 37° C. and incubated for 72 hours. Then the relative number of viable cells is determined by MTT method. In this experiment, cell proliferation inhibition rate in control group (not treated with any compound) is set as 0%.
# Hep G2 cell line = experiment: solid tumor cell growth inhibition, MTT; assay type: cell-based, human; conditions: Homo sapiens
# Procedure: (§3) Hep-2 (laryngeal carcinoma), A549 (human lung cancer), CaES-17 (esophageal cancer cell), PC-3 (prostate cancer), CNE (nasopharyngeal carcinoma cell), and SK-OV-3 (ovarian cancer cell), all of which are purchased from China Center For Type Culture Collection; RKO (human colon adenocarcinoma cell), MGC 803 (human gastric cancer cell), MG63 (osteosarcoma) and U87 MG (malignant glioma cell), all of which are purchased from Fuxiang Bio-tech Co. Ltd., Shanghai, China; PANC-1 (pancreatic cancer), Hep G2 (human liver cancer cell), Becap37 (human breast cancer cell), and Hela (human cervical cancer cell), all of which are donated by Cancer Research Institute of Zhejiang University, China.
# (§4) Obtaining 4000 well-growing human solid tumor cells and inoculating them into wells of a 96-well cell culture plate. The culture medium is DMEM High Glucose cell culture medium containing 10% fetal bovine serum. The plate is placed in a carbon dioxide cell incubator (5% CO2) at 37° C. for 24 hours. After adding the 2-substituted oleanolic acid derivatives of different concentrations and mixing uniformly, the plate is placed in a carbon dioxide cell incubator (5% CO2) at 37° C. and incubated for 72 hours. Then the relative number of the living cells is determined by MTT method. In this experiment, the cell proliferation inhibition rate in control group (not treated with any compound) is set as 0%.
# A549 cell line = experiment: solid tumor cell growth inhibition, MTT; assay type: cell-based; conditions: Homo sapiens
# Procedure: as §3, §4
# Becap37 cell line = experiment: solid tumor cell growth inhibition, MTT; assay type: cell-based; conditions: Homo sapiens
# Procedure: as §3, §4
# CNE cell line = experiment: solid tumor cell growth inhibition, MTT; assay type: cell-based; conditions: Homo sapiens, 72 h
# Procedure: as §3, §4
# CaES-17 cell line = experiment: solid tumor cell growth inhibition, MTT; assay type: cell-based; conditions: Homo sapiens, CaEs17
# Procedure: as §3, §4
# Hela cell line = experiment: solid tumor cell growth inhibition, MTT; assay type: cell-based; conditions: Homo sapiens, 72 h
# Procedure: as §3, §4
# Hep-2 cell line = experiment: solid tumor cell growth inhibition, MTT; assay type: cell-based; conditions: Homo sapiens
# Procedure: as §3, §4
# MG-63 cell line = experiment: solid tumor cell growth inhibition, MTT; assay type: cell-based; conditions: Homo sapiens
# Procedure: as §3, §4
# MGC 803 cell line = experiment: solid tumor cell growth inhibition, MTT; assay type: cell-based; conditions: Homo sapiens
# Procedure: as §3, §4
# PANC-1 cell line = experiment: solid tumor cell growth inhibition, MTT; assay type: cell-based; conditions: Homo sapiens
# Procedure: as §3, §4
# PC-3 cell line = experiment: solid tumor cell growth inhibition, MTT; assay type: cell-based; conditions: Homo sapiens
# Procedure: as §3, §4
# RKO cell line = experiment: solid tumor cell growth inhibition, MTT; assay type: cell-based; conditions: Homo sapiens, 72 h
# Procedure: as §3, §4
# SK-OV-3 cell line = experiment: solid tumor cell growth inhibition, MTT; assay type: cell-based; conditions: Homo sapiens
# Procedure: as §3, §4
# U87 MG cell line = experiment: solid tumor cell growth inhibition, MTT; assay type: cell-based; conditions: Homo sapiens, U-87 MG, 72 h
# Procedure: as §3, §4
# [1] = 16 μg/mL compound, read-out: IR (cell proliferation inhibition rate)
smiles,measurement,setting,value
COC(=O)[C@]12CCC(C)(C)CC1C1=CCC3[C@@]4(C)CC(C(=O)NCCN5CCCC5)C(=O)C(C)(C)C4CC[C@@]3(C)[C@]1(C)CC2 (stereo partly shown) [BS-OA-005],IC50,"H9 cell line; H9, 72 h",3.16 µg/mL
same,inhibition at 16 µg/mL,"H9 cell line; H9, 16 μg/mL compound, 72 h, read-out: IR (cell proliferation inhibition rate)",96.2%
same,inhibition at 16 µg/mL,Jurkat cell line; [1],98.1%
same,IC50,Jurkat cell line,2.33 µg/mL
same,IC50,K562/adr cell line; K562/Adr,1.16 µg/mL
same,inhibition at 16 µg/mL,"K562/adr cell line; K562/adr, 16 μg/mL compound, read-out: IR (cell proliferation inhibition rate)",100%
same,inhibition at 16 µg/mL,"Kasumi-1 cell line; Kasumi-1, 16 μg/mL compound, 72 h, read-out: IR (cell proliferation inhibition rate)",99.8%
same,IC50,"Kasumi-1 cell line; Kasumi-1, 72 h",3.98 µg/mL
same,inhibition at 16 µg/mL,"NB4 cell line; NB4, 16 μg/mL compound, 72 h, read-out: IR (cell proliferation inhibition rate)",100%
same,IC50,"NB4 cell line; NB4, 72 h",2.73 µg/mL
same,inhibition at 16 µg/mL,"RPMI8226 cell line; RPMI8226, 16 μg/mL compound, 72 h, read-out: IR (cell proliferation inhibition rate)",99.2%
same,IC50,"RPMI8226 cell line; RPMI8226, 72 h",0.69 µg/mL
same,inhibition at 16 µg/mL,"Hep G2 cell line; HepG2, 72 h, Hep G2, 16 μg/mL compound, 72 h, read-out: IR (cell proliferation inhibition rate)",> 96%
same,IC50,"Hep G2 cell line; HepG2, Hep G2, 72 h",2.53 µg/mL
same,IC50,"A549 cell line; A549, 72 h",2.19 µg/mL
same,inhibition at 16 µg/mL,"A549 cell line; A549, 16 μg/mL compound, 72 h, read-out: IR (cell proliferation inhibition rate)",96.8%
same,inhibition at 16 µg/mL,"Becap37 cell line; Becap37, 16 μg/mL compound, 72 h, read-out: IR (cell proliferation inhibition rate)",98.6%
same,IC50,"Becap37 cell line; Becap37, 72 h",5.68 µg/mL
same,inhibition at 16 µg/mL,CNE cell line; [1],98.6%
same,IC50,CNE cell line,3.65 µg/mL
same,inhibition at 16 µg/mL,"CaES-17 cell line; CaES-17, 16 μg/mL compound, 72 h, read-out: IR (cell proliferation inhibition rate)",98.9%
same,IC50,"CaES-17 cell line; CaES-17, 72 h",3.34 µg/mL
same,IC50,Hela cell line; HeLa,4.05 µg/mL
same,inhibition at 16 µg/mL,"Hela cell line; Hela, 16 μg/mL compound, read-out: IR (cell proliferation inhibition rate)",98.6%
same,IC50,"Hep-2 cell line; HEp-2, 72 h",5.09 µg/mL
same,inhibition at 16 µg/mL,"Hep-2 cell line; Hep-2, 16 μg/mL compound, 72 h, read-out: IR (cell proliferation inhibition rate)",99.2%
same,IC50,"MG-63 cell line; MG-63, 72 h",2.31 µg/mL
same,inhibition at 16 µg/mL,"MG-63 cell line; MG-63, 16 μg/mL compound, 72 h, read-out: IR (cell proliferation inhibition rate)",99.7%
same,inhibition at 16 µg/mL,"MGC 803 cell line; MGC 803, 16 μg/mL compound, 72 h, read-out: IR (cell proliferation inhibition rate)",99.3%
same,IC50,"MGC 803 cell line; MGC 803, 72 h",2.7 µg/mL
same,IC50,"PANC-1 cell line; PANC-1, 72 h",4.54 µg/mL
same,inhibition at 16 µg/mL,"PANC-1 cell line; PANC-1, 16 μg/mL compound, 72 h, read-out: IR (cell proliferation inhibition rate)",97.8%
same,IC50,"PC-3 cell line; PC-3, 72 h",5.11 µg/mL
same,inhibition at 16 µg/mL,"PC-3 cell line; PC-3, 16 μg/mL compound, 72 h, read-out: IR (cell proliferation inhibition rate)",99.2%
same,inhibition at 16 µg/mL,RKO cell line; [1],98.7%
same,IC50,RKO cell line,3.19 µg/mL
same,IC50,"SK-OV-3 cell line; SK-OV-3, 72 h",4.23 µg/mL
same,inhibition at 16 µg/mL,"SK-OV-3 cell line; SK-OV-3, 16 μg/mL compound, 72 h, read-out: IR (cell proliferation inhibition rate)",98.3%
same,inhibition at 16 µg/mL,U87 MG cell line; [1],100%
same,IC50,U87 MG cell line,2.5 µg/mL

# Reference: patent publication US9156801B2, “2-substituted oleanolic acid derivative, method preparing for same, and application thereof” (HANGZHOU BENSHENG PHARMACEUTICAL CO., LTD., priority 2011, dated 2015)
